Numbers after ± are expanded uncertainties.
Tests used:
[1] = molar heat capacity at constant pressure; wn = mass fraction of the nth substance listed; details: 1800 kPa, Liquid, Small sample (50 mg) DSC
[2] = xn = mol fraction of the nth substance listed; details: 1800 kPa, Liquid, Vibrating tube method
[3] = wn = mass fraction of the nth substance listed; details: 1800 kPa, Liquid, Falling or rolling sphere viscometry

O=[N+]([O-])[O-].[Li+] [lithium nitrate] + N
Details | mass density [kg/m3] | molar heat capacity at constant pressure [J/K/mol] | viscosity [mPa·s]
[1], 312.65 K, w2 = 0.5 | – | 85.88 ± 1.3 | –
[1], 312.67 K, w2 = 0.3501 | – | 84.48 ± 1.3 | –
[1], 312.67 K, w2 = 0.4003 | – | 84.65 ± 1.3 | –
[1], 312.67 K, w2 = 0.4499 | – | 85.21 ± 1.3 | –
[1], 312.67 K, w2 = 0.5497 | – | 84.75 ± 1.3 | –
[1], 322.56 K, w2 = 0.5 | – | 86.67 ± 1.3 | –
[1], 322.57 K, w2 = 0.3501 | – | 85.61 ± 1.3 | –
[1], 322.58 K, w2 = 0.4003 | – | 85.8 ± 1.3 | –
[1], 322.58 K, w2 = 0.4499 | – | 86.2 ± 1.3 | –
[1], 322.58 K, w2 = 0.5497 | – | 85.55 ± 1.3 | –
[1], 332.46 K, w2 = 0.5 | – | 87.54 ± 1.4 | –
[1], 332.48 K, w2 = 0.3501 | – | 86.65 ± 1.3 | –
[1], 332.48 K, w2 = 0.4499 | – | 87.22 ± 1.3 | –
[1], 332.48 K, w2 = 0.5497 | – | 86.09 ± 1.3 | –
[1], 332.49 K, w2 = 0.4003 | – | 86.7 ± 1.3 | –
[1], 342.37 K, w2 = 0.5 | – | 88.33 ± 1.4 | –
[1], 342.38 K, w2 = 0.3501 | – | 87.52 ± 1.4 | –
[1], 342.38 K, w2 = 0.5497 | – | 86.97 ± 1.3 | –
[1], 342.39 K, w2 = 0.4003 | – | 87.51 ± 1.4 | –
[1], 342.39 K, w2 = 0.4499 | – | 88.09 ± 1.4 | –
[1], 352.29 K, w2 = 0.3501 | – | 88.22 ± 1.4 | –
[1], 352.29 K, w2 = 0.4003 | – | 88.07 ± 1.4 | –
[1], 352.31 K, w2 = 0.4499 | – | 88.59 ± 1.4 | –
[2], 293.15 K, x2 = 0.3501 | 1188.8 ± 0.8 | – | –
[2], 293.15 K, x2 = 0.3988 | 1134.2 ± 0.8 | – | –
[2], 293.15 K, x2 = 0.4499 | 1078.1 ± 0.8 | – | –
[2], 293.15 K, x2 = 0.5 | 1030 ± 0.8 | – | –
[2], 293.15 K, x2 = 0.55 | 983.8 ± 0.7 | – | –
[2], 293.15 K, x2 = 0.5999 | 939 ± 0.7 | – | –
[2], 293.15 K, x2 = 0.6505 | 896.8 ± 0.7 | – | –
[2], 303.15 K, x2 = 0.3501 | 1181.2 ± 0.8 | – | –
[2], 303.15 K, x2 = 0.3988 | 1126.6 ± 0.8 | – | –
[2], 303.15 K, x2 = 0.4499 | 1070.3 ± 0.8 | – | –
[2], 303.15 K, x2 = 0.5 | 1022.1 ± 0.8 | – | –
[2], 303.15 K, x2 = 0.55 | 975.4 ± 0.7 | – | –
[2], 303.15 K, x2 = 0.5999 | 929.8 ± 0.7 | – | –
[2], 303.15 K, x2 = 0.6505 | 886.9 ± 0.7 | – | –
[2], 313.15 K, x2 = 0.3501 | 1173.8 ± 0.8 | – | –
[2], 313.15 K, x2 = 0.3988 | 1119 ± 0.8 | – | –
[2], 313.15 K, x2 = 0.4499 | 1062.6 ± 0.8 | – | –
[2], 313.15 K, x2 = 0.5 | 1014.1 ± 0.8 | – | –
[2], 313.15 K, x2 = 0.55 | 966.8 ± 0.7 | – | –
[2], 313.15 K, x2 = 0.5999 | 920.6 ± 0.7 | – | –
[2], 313.15 K, x2 = 0.6505 | 876.7 ± 0.7 | – | –
[2], 323.15 K, x2 = 0.3501 | 1166.6 ± 0.8 | – | –
[2], 323.15 K, x2 = 0.3988 | 1111.5 ± 0.8 | – | –
[2], 323.15 K, x2 = 0.4499 | 1055.1 ± 0.8 | – | –
[2], 323.15 K, x2 = 0.5 | 1006.1 ± 0.8 | – | –
[2], 323.15 K, x2 = 0.55 | 958.1 ± 0.7 | – | –
[2], 323.15 K, x2 = 0.5999 | 911.2 ± 0.7 | – | –
[2], 323.15 K, x2 = 0.6505 | 866.6 ± 0.7 | – | –
[2], 333.15 K, x2 = 0.3501 | 1159.7 ± 0.8 | – | –
[2], 333.15 K, x2 = 0.3988 | 1104.1 ± 0.8 | – | –
[2], 333.15 K, x2 = 0.4499 | 1047.5 ± 0.8 | – | –
[2], 333.15 K, x2 = 0.5 | 998 ± 0.8 | – | –
[2], 333.15 K, x2 = 0.55 | 949.4 ± 0.7 | – | –
[2], 333.15 K, x2 = 0.5999 | 901.6 ± 0.7 | – | –
[2], 343.15 K, x2 = 0.3501 | 1153.1 ± 0.8 | – | –
[2], 343.15 K, x2 = 0.3988 | 1096.9 ± 0.8 | – | –
[2], 343.15 K, x2 = 0.4499 | 1040 ± 0.8 | – | –
[2], 343.15 K, x2 = 0.5 | 990.1 ± 0.8 | – | –
[2], 343.15 K, x2 = 0.55 | 940.4 ± 0.8 | – | –
[2], 353.15 K, x2 = 0.3501 | 1146.9 ± 0.8 | – | –
[2], 353.15 K, x2 = 0.3988 | 1090.2 ± 0.8 | – | –
[2], 353.15 K, x2 = 0.4499 | 1032.8 ± 0.8 | – | –
[2], 353.15 K, x2 = 0.5 | 982.1 ± 0.8 | – | –
[3], 293.2 K, w2 = 0.4 | – | – | 22.7 ± 0.5
[3], 293.2 K, w2 = 0.4997 | – | – | 7.1 ± 0.4
[3], 298.2 K, w2 = 0.4 | – | – | 18.7 ± 0.5
[3], 298.2 K, w2 = 0.4997 | – | – | 6.1 ± 0.4
[3], 303.2 K, w2 = 0.4 | – | – | 15.5 ± 0.4
[3], 303.2 K, w2 = 0.4997 | – | – | 5.3 ± 0.4
[3], 308.2 K, w2 = 0.4 | – | – | 13 ± 0.4
[3], 308.2 K, w2 = 0.4997 | – | – | 4.7 ± 0.4
[3], 313.2 K, w2 = 0.4 | – | – | 11 ± 0.4
[3], 313.2 K, w2 = 0.4997 | – | – | 4.1 ± 0.4
[3], 318.2 K, w2 = 0.4 | – | – | 9.3 ± 0.4
[3], 318.2 K, w2 = 0.4997 | – | – | 3.6 ± 0.4
[3], 323.2 K, w2 = 0.3 | – | – | 18.6 ± 0.4
[3], 323.2 K, w2 = 0.4 | – | – | 8 ± 0.4
[3], 323.2 K, w2 = 0.4997 | – | – | 3.3 ± 0.4
[3], 328.1 K, w2 = 0.4997 | – | – | 2.9 ± 0.4
[3], 328.2 K, w2 = 0.3 | – | – | 15.9 ± 0.4
[3], 328.2 K, w2 = 0.4 | – | – | 6.9 ± 0.4
[3], 333.1 K, w2 = 0.4997 | – | – | 2.6 ± 0.4
[3], 333.2 K, w2 = 0.3 | – | – | 13.8 ± 0.4
[3], 333.2 K, w2 = 0.4 | – | – | 6.1 ± 0.4
[3], 338 K, w2 = 0.4997 | – | – | 2.4 ± 0.4
[3], 338.1 K, w2 = 0.3 | – | – | 11.9 ± 0.4
[3], 338.1 K, w2 = 0.4 | – | – | 5.4 ± 0.4
[3], 343 K, w2 = 0.4997 | – | – | 2.2 ± 0.4
[3], 343.1 K, w2 = 0.3 | – | – | 10.9 ± 0.4
[3], 343.1 K, w2 = 0.4 | – | – | 4.8 ± 0.4
[3], 348.1 K, w2 = 0.3 | – | – | 9 ± 0.4
[3], 348.2 K, w2 = 0.4 | – | – | 4.3 ± 0.4
[3], 353.1 K, w2 = 0.4 | – | – | 3.8 ± 0.4
[3], 353.2 K, w2 = 0.3 | – | – | 7.9 ± 0.4
